US20250186627A1, “RADIOLABELED COMPOUNDS TARGETING THE PROSTATE-SPECIFIC MEMBRANE ANTIGEN” (PROVINCIAL HEALTH SERVICES AUTHORITY, priority 2022, published 2025)
*1 amine or outer side, *2 acyl side, *3 side chain or, on linkers, in order; H or OH if unused. Where a SMILES comes first, the peptide text is derived from it. [ ]: non-standard residue; d: D form. The star is where a group is joined. ξ: configuration not given here. ξLys(Nα-CO-ξAad) = O=C(O)CCCC(NC(=O)NC(CCCCN*)C(=O)O)C(=O)O; DOTA = O=C(O)CN1CCN(CC(=O)O)CCN(CC(=O)*)CCN(CC(=O)O)CC1; Butanoyl(4-(4-MeO-phenyl)) = COc1ccc(CCCC(=O)*)cc1; ξAla(9-anthryl) = NC(Cc1c2ccccc2cc2ccccc12)C(=O)O; X1 = O=C(C1CCC(CN[*:1])CC1)[*:2]; ξK = NCCCCC(N)C(=O)O

Test system: NRG-mice bearing LNCaP tumors
Test: Biodistribution (and PET/SPECT imaging) in NRG-mice bearing LNCaP tumors
Type: in vivo
Details: for Biodistribution: Adrenal gland / Biodistribution: Blood / Biodistribution: Bone / Biodistribution: Brain / Biodistribution: Fat / Biodistribution: Heart / Biodistribution: Intestine / Biodistribution: LNCaP tumor / Biodistribution: Liver / Biodistribution: Lungs / Biodistribution: Muscle / Biodistribution: Pancreas / Biodistribution: Salivary gland / Biodistribution: Seminal gland / Biodistribution: Spleen / Biodistribution: Stomach / Biodistribution: Testes / Biodistribution: Thyroid / Biodistribution: Urine / Biodistribution: kidney: Avg
Description: LNCaP cell line was obtained from ATCC (LNCaP clone FGC, CRL-1740). It was established from a metastatic site of left supraclavicular lymph node of human prostatic adenocarcinoma. Cells were cultured in PRMI 1640 medium supplemented with 10% FBS, penicillin (100 U/mL) and streptomycin (100 μg/mL) at 37° C. in a humidified incubator containing 5% CO2. Cells grown to 80-90% confluence were then washed with sterile phosphate-buffered saline (1×PBS pH 7.4) and trypsinization. The collected cells number was counted with a Hausser Scientific (Horsham, PA) Hemacytometer. Approximately 10 million LNCaP cells were inoculated into the left dorsal flank of immunocomprised NRG mice. The tumours were allowed to grow for 4-6 weeks and used for imaging and biodistribution studies when a volume of 200-600 mm^3 was reached.
PET imaging experiments were conducted using Siemens Inveon micro PET/CT scanner. SPECT imaging experiments were conducted using an MILabs micro SPECT/CT scanner. Each tumor bearing mouse was injected 4-6 MBq of ^68Ga or 18.5 MBq of ^177Lu labeled tracer through the tail vein under anesthesia (2% isoflurane in oxygen). The mice were allowed to recover and roam freely in their cage. At pre-defined time point, the mice were sedated again with 2% isoflurane in oxygen inhalation and positioned in the scanner. A 10-min CT scan was conducted first for localization and attenuation correction after segmentation for reconstructing the PET or SPECT images. Then, a 10-min static PET imaging or a one hour (30 min×2 frames) of static SPECT scan was performed to determined uptake in tumor and other organs. The mice were kept warm by a heating pad during acquisition.
For biodistribution studies, the mice were injected with the radiotracer as described above. The mice were anesthetized with 2% isoflurane inhalation, and euthanized by CO2 inhalation. Blood was withdrawn immediately from the heart, and the organs/tissues of interest were collected. The collected organs/tissues were weighed and counted using a Perkin Elmer (Waltham, MA) Wizard2 2480 gamma counter. The uptake in each organ/tissue was normalized to the injected dose (radioactivity) using a standard curve, and expressed as the percentage of the injected dose per gram of tissue (% ID/g).

Blood radioactivity (1 and 3 h p.i.): high and sustained blood radioactivity | Biodistribution: Adrenal gland (1 h p.i.): 3.82 % ID/g | Biodistribution: Blood (1 h p.i.): 19.52 % ID/g | Biodistribution: Bone (1 h p.i.): 0.77 % ID/g | Biodistribution: Brain (1 h p.i.): 0.30 % ID/g | Biodistribution: Fat (1 h p.i.): 1.35 % ID/g | Biodistribution: Heart (1 h p.i.): 4.02 % ID/g | Biodistribution: Intestine (1 h p.i.): 1.72 % ID/g | Biodistribution: LNCaP tumor (1 h p.i.): 7.11 % ID/g | Biodistribution: Liver (1 h p.i.): 3.04 % ID/g | Biodistribution: Lungs (1 h p.i.): 6.51 % ID/g | Biodistribution: Muscle (1 h p.i.): 1.15 % ID/g | Biodistribution: Pancreas (1 h p.i.): 1.56 % ID/g | Biodistribution: Salivary gland (1 h p.i.): 2.74 % ID/g | Biodistribution: Seminal gland (1 h p.i.): 0.88 % ID/g | Biodistribution: Spleen (1 h p.i.): 1.56 % ID/g | Biodistribution: Stomach (1 h p.i.): 0.71 % ID/g | Biodistribution: Testes (1 h p.i.): 2.33 % ID/g | Biodistribution: Thyroid (1 h p.i.): 2.92 % ID/g | Biodistribution: Urine (1 h p.i.): 63.67 % ID/g | Biodistribution: kidney (1 h p.i.): 7.57 % ID/g | Biodistribution: Adrenal gland (3 h p.i.): 4.34 % ID/g | Biodistribution: Blood (3 h p.i.): 19.18 % ID/g | Biodistribution: Bone (3 h p.i.): 1.62 % ID/g | Biodistribution: Brain (3 h p.i.): 0.32 % ID/g | Biodistribution: Fat (3 h p.i.): 1.52 % ID/g | Biodistribution: Heart (3 h p.i.): 3.76 % ID/g | Biodistribution: Intestine (3 h p.i.): 1.53 % ID/g | Biodistribution: LNCaP tumor (3 h p.i.): 17.69 % ID/g | Biodistribution: Liver (3 h p.i.): 3.35 % ID/g | Biodistribution: Lungs (3 h p.i.): 7.15 % ID/g | Biodistribution: Muscle (3 h p.i.): 1.34 % ID/g | Biodistribution: Pancreas (3 h p.i.): 1.41 % ID/g | Biodistribution: Salivary gland (3 h p.i.): 3.82 % ID/g | Biodistribution: Seminal gland (3 h p.i.): 1.73 % ID/g | Biodistribution: Spleen (3 h p.i.): 2.17 % ID/g | Biodistribution: Stomach (3 h p.i.): 0.73 % ID/g | Biodistribution: Testes (3 h p.i.): 2.28 % ID/g | Biodistribution: Thyroid (3 h p.i.): 3.59 % ID/g | Biodistribution: Urine (3 h p.i.): 56.09 % ID/g | Biodistribution: kidney (3 h p.i.): 9.28 % ID/g
Structure (SMILES): COc1ccc(CCCC(=O)NCC(=O)NC(CCCCNC(=O)CN2CCN(CC(=O)[O-])CCN(CC(=O)[O-])CCN(CC(=O)[O-])CC2)C(=O)NCC(=O)NCC2CCC(C(=O)NC(Cc3c4ccccc4cc4ccccc34)C(=O)NCCCCC(NC(=O)NC(CCCC(=O)O)C(=O)O)C(=O)O)CC2)cc1.[68Ga+3] (centres unmarked) [^68Ga-CCZ02009] ({Butanoyl(4-(4-MeO-phenyl))}-G[ξK](DOTA)G[X1][ξAla(9-anthryl)]-{ξLys(Nα-CO-ξAad)})
